Test [1] addresses T1, papain-like protease (PLpro) (Severe acute respiratory syndrome coronavirus 2, UniProt P0DTC1). The experiment in a line: SARS-CoV-2 protease inhibition test, papain-like protease. Format: biochemical. To be noted: 0.3 mM, 37 degrees Celsius, 15 minutes, MCA fluorogenic substrate, compared to control (GSSSG(−)); FIG. 5.
Test [2] deals with T2, main protease (3CLpro) (Severe acute respiratory syndrome coronavirus 2, UniProt P0DTC1). The experiment in a line: SARS-CoV-2 protease inhibition test, main protease. Format: biochemical. The note with it: 0.3 mM, 37 degrees Celsius, 15 minutes, MCA fluorogenic substrate, compared to control (GSSSG(−)); FIG. 5.
The subject of test [3] is SARS-CoV-2 JPN/TY/WK-521 strain. Description: anti-SARS-CoV-2 action test in VeroE6/TMPRSS2 cells, quantitative PCR. The format is cell-based. The note with it: GSSSG 10 μM, 100 μM, 300 μM vs no GSSSG; MOI 0.01; FIG. 6.
Test [4] has as its system influenza virus PR8 strain (A/PR/8/34 (H1N1)). The experiment in a line: anti-influenza effect in mice (influenza A virus pneumonia). Format: in vivo, B6 mice. The note with it: nasal administration 50 μL, 1 mM, six hours before virus inoculation; vs PBS group; FIG. 3. The method, then: An influenza virus PR8 strain (A/PR/8/34 (H1N1), Akaike T. et al, Journal of Infectious Diseases, 170, 1023-1026, 1994) (2000 pfu/ml (PBS)) was administered to each of a plurality of B6 mice (ten 8-week-old mice for each group). This administration was performed by intratracheal administration of a virus solution (PBS 40 μL) under anesthesia. Furthermore, nasal administration of GSSSG (50 μL,1 mM) was performed under anesthesia six hours before the virus inoculation and then a survival rate of the mice, their lung damage (14 days after infection), and various kinds of inflammatory cell counts (three days after infection) were measured chronologically and analyzed. A group to which the GSSSG was administered was compared with a control group (PBS-administered group/no GSSG administered) concerning the survival rate, whether there is any lung damage or not, and the various kinds of inflammatory cell counts. Regarding the lung damage, pneumonia images were evaluated by means of HE staining. Regarding the measurement of the inflammatory cell counts, bronchoalveolar lavage (BAL) was performed by using PBS and the number of cells in BAL and cytokine were analyzed.

Test [5] has as its system porcine pancreas elastase (PPE) induced emphysema models. The experiment in a line: elastase-induced COPD / emphysema model. The format is in vivo, CARS2-deficient B6 mice. On the procedure: FIG. 4 is an example indicating the therapeutic effect of the GSSSG on elastase-induced COPD; and airway administration of GSSSG (50 μL, 1 mM) to porcine pancreas elastase (PPE) induced emphysema models of CARS2-deficient B6 mice^*1 was performed three times, that is, six hours before, two days later, and four days later, and an inflammatory cell count in a bronchial alveolar lavage fluid (BALF) five days after the PPE administration was measured and emphysema lesions were analyzed by using CT. The inflammatory cell count was measured in the same manner as in the example of FIG. 3. […] 2017.

Another test concerns bronchial asthma model. Description: bronchial asthma model. The format is in vivo. To be noted: mice.
For another test, the system named is pulmonary fibrosis model. Description: pulmonary fibrosis model. Format: in vivo. To be noted: mice.
Test [6] deals with T1, papain-like protease (PLpro). To be noted: reported in literature; cited from earlier work.
Test [7] addresses T2, main protease (3CLpro). To be noted: reported in literature; cited from earlier work.
In test [8] the test system is novel coronavirus (SARS-CoV-2). The note with it: reported in NPL 2 and NPL 3; cited from earlier work.

Each structure is given as a SMILES string. “Also recorded” adds a separate entry of the source.

Consider `N[C@@H](CCC(=O)N[C@@H](CSSSC[C@H](NC(=O)CC[C@H](N)C(=O)O)C(=O)NCC(=O)O)C(=O)NCC(=O)O)C(=O)O` [GSSSG, glutathione trisulfide], for which, in [1], the “inhibitory activity on protease activity (PLpro)” value is “same level of strong inhibitory activity”. Moreover, on main protease (3CLpro) [2], the “inhibitory activity on protease activity (3CLpro)” value is listed as “same level of strong inhibitory activity”. Also, the RNA viral load result in [3] was “RNA viral load decreases along with an increase in the dosage”. For the same compound, the “effect on influenza A virus pneumonia” value in [4] was “preventive and therapeutic effects; also recorded: improving severe pneumonia”. Moreover, the “inflammatory cell count in bronchial alveolar lavage fluid (BALF)” value in test [5] (airway administration 50 μL, 1 mM, three times, five days after PPE administration, vs GSSSG(−), FIG. 4) is “small as compared to that of the no GSSSG-administered group”. Also, the “emphysema lesions by CT” value in test [5] (airway administration 50 μL, 1 mM, three times, vs GSSSG(−), FIG. 4) is recorded as “remission of the emphysema has been achieved”. The “therapeutic effect in COPD model” value in test [5] (mice) is “therapeutic effect of the GSSSG was also confirmed; also recorded: alleviates respiratory tract and lung damage and pulmonary fibrosis”. Moreover, the “therapeutic effect in bronchial asthma model” value in the test with bronchial asthma model is “therapeutic effect of the GSSSG was also confirmed; also recorded: alleviates respiratory tract and lung damage and pulmonary fibrosis”. Besides, the “therapeutic effect in pulmonary fibrosis model” value in the test with pulmonary fibrosis model was “therapeutic effect of the GSSSG was also confirmed; also recorded: alleviates respiratory tract and lung damage and pulmonary fibrosis”.

Consider `O=c1c2ccccc2[se]n1-c1ccccc1` [Ebselen, 2-Phenyl-1,2-benzoisoselenazol-3(2H)-one], for which the “inhibitory activity on PLpro as reported in NPL” value in test [6] was “strong inhibitory activity”. Besides, at main protease (3CLpro) [7], the “inhibitory activity on 3CLpro as reported in NPL” value is “strong inhibitory activity”. For the same compound, in test [8], the “proliferation suppression effect on SARS-CoV-2” value is “conspicuous proliferation suppression effect”.
